biological target: LRRK2 G2019S enzyme (Homo sapiens (Human), UniProt Q5S007, G2019S); assay: LRRK2 G2019S biochemical TR-FRET assay (LRRKtide substrate); conditions: 5 nM LRRK2, 134 μM ATP, 60 minute reaction time, 23° C.
Protocol: Materials: • LRRK2 G2019S enzyme • Substrate (LRRKtide) • ATP • TR-FRET dilution buffer • pLRRKtide antibody • 384-well assay plate • DMSO • Enzyme reaction conditions • 50 mM Tris pH 7.5, 10 mM MgCl2, 1 mM EGTA, 0.01% Brij-35, 2 mM DTT • 5 nM LRRK2 • 134 μM ATP • 60 minute reaction time • 23° C. reaction temperature • 10 μL total reaction volume
Detection reaction conditions • 1×TR-FRET dilution buffer • 10 mM EDTA • 2 nM antibody • 23° C. reaction temperature • 10 μL total reaction volume
Compounds were prepared by initially diluting to 1 mM with DMSO. 35 μL of reference compound solution, 35 μL of test compound solution, and 35 μL HPE were successively added to the source plate (384-well assay plate, Labcyte). The plates were centrifuged at 2500 rpm for 1 minute and sealed in foil. POD was used to perform a 3.162 fold serial dilution and 100 nL of reference compound solution, test compound solution, HPE and ZPE were transferred to assay plates. The assay plate was centrifuged at 2500 rpm for 1 minute, and sealed with foil.
To perform the enzyme reaction, 5 μL of LRRKtide substrate and kinase mixture in assay buffer was added to all wells of the assay plate. The plate was centrifuged to concentrate the mixture at the bottom of the wells. The assay plate was incubated at 23° C. for 20 minutes. Following incubation, 5 μL of 2×ATP in assay buffer was added to each well, and plates were centrifuged to concentrate the mixture at the bottom of the wells. The plate was incubated at 23° C. for 60 minutes.
To perform the detection of the reaction, EDTA completely mixed in TR-FRET dilution buffer was added to antibody reagent. 10 μL of detection reagent was added to all wells of each well of the assay plate and the plate was centrifuged to concentrate the mixture at the bottom of the wells. The plate was then incubated at 23° C. for 60 minutes. Plates were read on Perkin Elmer Envision 2104 instrument in TR-FRET mode using a 340 nm excitation filter, 520 nm fluorescence emission filter, and 490 or 495 nm terbium emission filter.
In the table below, activity is provided as follows: In the table below, activity is provided as follows: +++=IC50 less than 30 nM; ++=IC50 between 30 nM and 60 nM; +=IC50 greater than 60 nM.

LRRK2 G2019S enzyme, sequence (Q5S007 whole entry G2019S): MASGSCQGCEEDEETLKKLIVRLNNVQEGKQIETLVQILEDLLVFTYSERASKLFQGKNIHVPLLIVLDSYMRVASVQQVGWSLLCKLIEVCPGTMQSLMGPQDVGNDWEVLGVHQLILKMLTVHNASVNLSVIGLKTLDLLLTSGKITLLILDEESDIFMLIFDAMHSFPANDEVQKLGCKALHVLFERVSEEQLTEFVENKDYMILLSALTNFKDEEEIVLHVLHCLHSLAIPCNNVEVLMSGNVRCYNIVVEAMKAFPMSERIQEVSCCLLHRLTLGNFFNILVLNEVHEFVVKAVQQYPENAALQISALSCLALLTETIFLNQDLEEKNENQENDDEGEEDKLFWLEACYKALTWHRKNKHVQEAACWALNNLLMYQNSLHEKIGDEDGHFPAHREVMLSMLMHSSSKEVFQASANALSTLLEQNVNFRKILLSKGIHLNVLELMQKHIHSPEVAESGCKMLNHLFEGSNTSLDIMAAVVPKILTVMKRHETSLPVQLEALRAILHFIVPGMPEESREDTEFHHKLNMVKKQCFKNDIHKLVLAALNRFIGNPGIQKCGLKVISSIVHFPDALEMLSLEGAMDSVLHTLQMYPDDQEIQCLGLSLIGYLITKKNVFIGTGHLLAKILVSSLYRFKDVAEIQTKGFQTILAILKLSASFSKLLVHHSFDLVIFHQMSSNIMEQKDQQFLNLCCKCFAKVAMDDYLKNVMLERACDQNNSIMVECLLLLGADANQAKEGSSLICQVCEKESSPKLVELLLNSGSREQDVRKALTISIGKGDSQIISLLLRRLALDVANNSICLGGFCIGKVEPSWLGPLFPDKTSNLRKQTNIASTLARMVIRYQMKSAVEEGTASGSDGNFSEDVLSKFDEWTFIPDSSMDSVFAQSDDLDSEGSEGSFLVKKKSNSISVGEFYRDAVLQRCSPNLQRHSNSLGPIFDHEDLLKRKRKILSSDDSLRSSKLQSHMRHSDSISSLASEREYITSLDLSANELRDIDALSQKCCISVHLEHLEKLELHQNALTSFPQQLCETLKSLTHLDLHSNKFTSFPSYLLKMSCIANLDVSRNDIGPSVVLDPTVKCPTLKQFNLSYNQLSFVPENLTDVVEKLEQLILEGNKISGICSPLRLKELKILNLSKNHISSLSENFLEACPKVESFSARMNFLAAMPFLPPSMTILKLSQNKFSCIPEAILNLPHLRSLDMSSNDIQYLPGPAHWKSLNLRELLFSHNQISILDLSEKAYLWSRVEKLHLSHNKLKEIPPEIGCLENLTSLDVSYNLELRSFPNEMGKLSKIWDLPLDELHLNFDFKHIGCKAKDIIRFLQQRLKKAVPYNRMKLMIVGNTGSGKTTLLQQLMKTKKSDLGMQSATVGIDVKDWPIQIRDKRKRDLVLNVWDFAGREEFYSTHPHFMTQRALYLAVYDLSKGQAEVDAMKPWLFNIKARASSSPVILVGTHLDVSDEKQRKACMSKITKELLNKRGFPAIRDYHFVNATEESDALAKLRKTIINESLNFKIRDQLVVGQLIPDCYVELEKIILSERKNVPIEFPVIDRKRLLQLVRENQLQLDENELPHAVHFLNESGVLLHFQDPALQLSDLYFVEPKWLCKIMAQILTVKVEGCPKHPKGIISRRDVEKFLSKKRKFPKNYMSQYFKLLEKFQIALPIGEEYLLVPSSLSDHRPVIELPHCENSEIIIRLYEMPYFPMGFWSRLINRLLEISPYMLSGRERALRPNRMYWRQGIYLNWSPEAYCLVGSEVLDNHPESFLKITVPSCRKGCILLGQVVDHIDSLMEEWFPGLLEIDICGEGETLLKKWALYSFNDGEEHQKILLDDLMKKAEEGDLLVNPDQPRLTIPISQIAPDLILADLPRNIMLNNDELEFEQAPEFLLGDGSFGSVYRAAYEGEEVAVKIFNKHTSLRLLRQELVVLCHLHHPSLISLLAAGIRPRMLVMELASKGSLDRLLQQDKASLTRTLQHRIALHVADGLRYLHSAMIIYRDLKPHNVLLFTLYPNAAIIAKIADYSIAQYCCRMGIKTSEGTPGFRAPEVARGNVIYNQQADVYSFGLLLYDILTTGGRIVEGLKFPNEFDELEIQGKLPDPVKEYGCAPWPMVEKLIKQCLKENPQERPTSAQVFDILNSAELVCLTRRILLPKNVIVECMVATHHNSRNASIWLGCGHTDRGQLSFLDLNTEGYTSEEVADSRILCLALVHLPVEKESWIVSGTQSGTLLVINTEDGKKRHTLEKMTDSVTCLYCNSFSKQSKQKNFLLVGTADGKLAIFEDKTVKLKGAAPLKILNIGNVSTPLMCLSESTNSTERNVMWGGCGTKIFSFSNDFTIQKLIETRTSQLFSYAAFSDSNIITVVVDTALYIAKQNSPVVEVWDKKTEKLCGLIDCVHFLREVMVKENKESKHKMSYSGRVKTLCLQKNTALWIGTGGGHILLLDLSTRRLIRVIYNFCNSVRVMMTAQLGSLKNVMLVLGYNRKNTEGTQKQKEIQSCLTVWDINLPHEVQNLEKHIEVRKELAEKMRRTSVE

IC50 | SMILES
< 30 nM | CNc1nc(Nc2sc(C(C)(C)C#N)nc2C)ncc1C(F)(F)F [Compound 17, 2-methyl-2-(4-methyl-5-((4-(methylamino)-5-(trifluoromethyl)pyrimidin-2-yl)amino)thiazol-2-yl)propanenitrile]
< 30 nM | CCNc1nc(Nc2sc(C(C)(C)C(N)=O)nc2C)ncc1C(F)(F)F [Compound 26]
< 30 nM | CNc1nc(Nc2sc(C(C)(C)C(N)=O)nc2Cl)ncc1C(F)(F)F [Compound 25]
< 30 nM | CCNc1nc(Nc2sc(C(=O)NC)nc2C)ncc1C(F)(F)F [Compound 28]
< 30 nM | CCNc1nc(Nc2sc(C(=O)N3CCC(F)(F)C3)nc2C)ncc1C(F)(F)F [Compound 10]
< 30 nM | CCNc1nc(Nc2sc(C(C)(C)C(N)=O)nc2Cl)ncc1Br [Compound 38]
< 30 nM | Cc1nc(C2(c3nc[nH]n3)CC2)sc1Nc1ncc(C(F)(F)F)c(C2CC2)n1 [Compound 3]
< 30 nM | Cc1nc(C(C)(C)C(N)=O)sc1Nc1ncc(C(F)(F)F)c(NC2CC2)n1 [Compound 29]
< 30 nM | CCNc1nc(Nc2sc(C3(C#N)CC3)nc2C)ncc1C(F)(F)F [Compound 32]
< 30 nM | CCNc1nc(Nc2sc(C(=O)N3CC4CCC(C3)O4)nc2C)ncc1C(F)(F)F [Compound 33]
< 30 nM | CNc1nc(Nc2sc(C3(C#N)CC3)nc2C)ncc1C(F)(F)F [Compound 2]
< 30 nM | COc1nc(Nc2sc(C(C)(C)C(N)=O)nc2Cl)ncc1Br [Compound 39]
< 30 nM | CCNc1nc(Nc2sc(C(=O)N3CCOCC3)nc2C)ncc1C(F)(F)F [Compound 24]
< 30 nM | CCNc1nc(Nc2sc(C#N)nc2C)ncc1C(F)(F)F [Compound 27]
< 30 nM | CCNc1nc(Nc2sc(C(C)(C)C(N)=O)nc2Cl)ncc1C(F)(F)F [Compound 37]
< 30 nM | CC(C)(C(N)=O)c1nc(Cl)c(Nc2ncc(C(F)(F)F)c(NCC(F)F)n2)s1 [Compound 40]
< 30 nM | Cc1nc(C(C)(C)C(N)=O)sc1Nc1ncc(C(F)(F)F)c(C2CC2)n1 [Compound 30]
< 30 nM | CNc1nc(Nc2sc(C(C)(C)C#N)nc2Cl)ncc1C(F)(F)F [Compound 36]
< 30 nM | CC(C)(C(N)=O)c1nc(Cl)c(Nc2ncc(Br)c(NC3CC3)n2)s1 [Compound 41]
< 30 nM | Cc1nc(C(C)(C)c2nnn(C)n2)sc1Nc1ncc(C(F)(F)F)c(C2CC2)n1 [Compound 31]
< 30 nM | CNc1nc(Nc2sc(C(C)(C)C#N)nc2C2CC2)ncc1C(F)(F)F [Compound 61]
< 30 nM | CC(C)(C(N)=O)c1nc(Cl)c(Nc2ncc(C(F)(F)F)c(NC3CC3)n2)s1 [Compound 34]
< 30 nM | CNc1nc(Nc2sc(C(C)(C)C(N)=O)nc2C)ncc1C(F)(F)F [Compound 22]
< 30 nM | Cc1nc(C(C)(C)c2nc[nH]n2)sc1Nc1ncc(C(F)(F)F)c(C2CC2)n1 [Compound 1]

More lines, now with the values behind:

SMILES | IC50
[2H]C([2H])([2H])C1(c2nc(Cl)c(Nc3ncc(Br)c(OC)n3)s2)CCNC1=O (single isomer, unassigned) [Compound 49] | < 30 nM
[2H]C([2H])([2H])C1(c2nc(C3CC3)c(Nc3ncc(C(F)(F)F)c(NCC)n3)s2)CCNC1=O (single isomer, unassigned) [Compound 51] | < 30 nM
[2H]C([2H])([2H])C1(c2nc(C3CC3)c(Nc3ncc(C(F)(F)F)c(NC)n3)s2)CCNC1=O (single isomer, unassigned) [Compound 60] | < 30 nM
[2H]C([2H])([2H])C1(c2nc(C3CC3)c(Nc3ncc(C(F)(F)F)c(NCC)n3)s2)CCNC1=O (single isomer, unassigned) [Compound 52] | < 30 nM
[2H]C([2H])([2H])C1(c2nc(C3CC3)c(Nc3ncc(Br)c(OC)n3)s2)CCNC1=O (single isomer, unassigned) [Compound 53] | < 30 nM
[2H]C([2H])([2H])C1(c2nc(Cl)c(Nc3ncc(C(F)(F)F)c(NC)n3)s2)CCNC1=O (single isomer, unassigned) [Compound 42] | < 30 nM
[2H]C([2H])([2H])C1(c2nc(C3CC3)c(Nc3ncc(C(F)(F)F)c(NC)n3)s2)CCNC1=O (single isomer, unassigned) [Compound 59] | < 30 nM
CCNc1nc(Nc2cn(S(C)(=O)=O)c(C#N)c2C)ncc1C(F)(F)F [Compound 16, 4-((4-(ethylamino)-5-(trifluoromethyl)pyrimidin-2-yl)amino)-3-methyl-1-(methylsulfonyl)-1H-pyrrole-2-carbonitrile] | < 30 nM
CCNc1nc(Nc2sc(C(C)(C)C#N)nc2Cl)ncc1C(F)(F)F [Compound 50] | < 30 nM
[2H]C([2H])([2H])N1CCC(c2nc(Cl)c(Nc3ncc(C(F)(F)F)c(NC)n3)s2)(C([2H])([2H])[2H])C1=O (single isomer, unassigned) [Compound 45] | < 30 nM
[2H]C([2H])([2H])N1CCC(c2nc(C)c(Nc3ncc(C(F)(F)F)c(NC)n3)s2)(C([2H])([2H])[2H])C1=O (stereo not shown) [Compound 23] | < 30 nM
[2H]C([2H])([2H])C1(c2nc(Cl)c(Nc3ncc(Br)c(OC)n3)s2)CCNC1=O (single isomer, unassigned) [Compound 48] | < 30 nM
[2H]C([2H])([2H])N1CCC(c2nc(Cl)c(Nc3ncc(C(F)(F)F)c(NCC)n3)s2)(C([2H])([2H])[2H])C1=O (single isomer, unassigned) [Compound 46] | < 30 nM
CCNc1nc(Nc2cn(Cc3ccn(C)n3)c(C#N)c2C)ncc1C(F)(F)F [Compound 15, 4-((4-(ethylamino)-5-(trifluoromethyl)pyrimidin-2-yl)amino)-3-methyl-1-((1-methyl-1H-pyrazol-3-yl)methyl)-1H-pyrrole-2-carbonitrile] | < 30 nM
CNc1nc(Nc2cn(C)c(C#N)c2C)ncc1C(F)(F)F [Compound 14, 1,3-dimethyl-4-((4-(methylamino)-5-(trifluoromethyl)pyrimidin-2-yl)amino)-1H-pyrrole-2-carbonitrile] | < 30 nM
[2H]C([2H])([2H])C1(c2nc(Cl)c(Nc3ncc(C(F)(F)F)c(NC)n3)s2)CCNC1=O (single isomer, unassigned) [Compound 43] | < 30 nM
[2H]C([2H])([2H])N1CCC(c2nc(Cl)c(Nc3ncc(C(F)(F)F)c(NC)n3)s2)(C([2H])([2H])[2H])C1=O (single isomer, unassigned) [Compound 44] | < 30 nM
[2H]C([2H])([2H])C1(c2nc(C3CC3)c(Nc3ncc(Br)c(OC)n3)s2)CCNC1=O (single isomer, unassigned) [Compound 54] | < 30 nM
[2H]C([2H])([2H])N1CCC(c2nc(Cl)c(Nc3ncc(C(F)(F)F)c(NCC)n3)s2)(C([2H])([2H])[2H])C1=O (single isomer, unassigned) [Compound 47] | < 30 nM
